# Results from patent EP0186807A2, “Anthracycline derivatives, their microbiological preparation and their use as medicines” (HOECHST AKTIENGESELLSCHAFT, priority 1984, dated 1986).
# Experiments:
# [1] = tested on: Mäuse-L 1210-Leukämiezellen; experiment: Proliferation test (14C-thymidine incorporation); format: cell-based; conditions: Mus musculus, read-out: IC50 Proliferations-test
# Description: (§1) Die Ermittlung der zytostatischen Aktivität der Kesarirhodine erfolgte in der nachfolgend beschriebenen Weise an Mäuse-L 1210-Leukämiezellen.
# Bei dieser in vitro-Methode ist es nach der Inkubation der Zellen mit verschiedenen Konzentrationen der Prüfsubstanz möglich, die eingebaute Menge eines radioaktiv markierten DNS-Vorläufers (z.B. 14C-Thymidin) in einer wachsenden Zelle zu bestimmen. Als Kontrolle dienen dem gleichen Verfahren unterzogenen unbehandelte L 1210-Zellen. Die Methode wird nachstehend kurz zusammengefaßt: • L 1210-Zellen in exponentieller Wachstumsphase (5 x 10^3/ml in RPMI 1640) werden 72 Stunden lang (37°C, 5 % C02, 95 % relative Feuchtigkeit) in einer 96-Loch-Mikrotiterplatte mit unterschiedlichen Konzentrationen der Prüfsubstanz inkubiert. Als Kontrollen werden Zellen verwendet, die lediglich mit dem frischen Medium in Berührung gebracht werden. Es werden vier Löcher für jede Medikamentenkonzentration und Kontrolle angelegt. Nach 65 Stunden werden 50 µl 14C Thymidin (1,5 oCi/ml) zugefügt, um die Zell-DNS zu markieren. Nach 7 Stunden Inkubation werden die Zellen geerntet, die DNS mit 5 % Trichloressigsäure abgetrennt und mit Wasser und Methanol gewaschen. Nach dem Trocknen bei 50°C wird die Szintillationszahl mit 5 ml Szintillationsflüssigkeit bestimmt.
# Die Ergebnisse werden als Quotient des Szintillationsindex nach der Inkubation mit den Testsubstanzen mit dem der Kontrollsubstanz ausgedrückt. Mit den ermittelten Werten wird eine Dosiswirkungskurve gezeichnet und der Wert IC50 d.h. die Konzentration der Prüfsubstanz, die den Einbau von markiertem Thymidin im Vergleich zur Kontrolle um 50 % hemmt, graphisch ermittelt. Die IC50-Werte sind denen von Adriamycin in der folgenden Tabelle III gegenübergestellt.
# Bacillus subtilis = experiment: Bacteriostatic activity, agar well diffusion (inhibition zone); format: cell-based; conditions: 1 mg/ml solution in a 6 mm well in agar containing Bacillus subtilis; read-out: Hofdurchmesser
# Protocol: (§2) Bestimmt wurde die bakteriostatische Wirkung von Kesarirhodin. Die Resultate, die als Durchmesser (in Millimetern) der Hemmhöfe, erzeugt durch die Substanz in Form einer 1 mg/ml-Lösung in einem Loch von 6 mm Durchmesser in Agar, das den Testorganismus enthält, angegeben sind, werden in der nachfolgenden Tabelle, Tabelle II, dargestellt. Kesarirhodine sind gegen gram-positive Bakterien und Pilze wirksam und können deshalb als Antibiotika zur Behandlung von Pilz- und Staphylokokken-Infektionen, Diphterie, Pneumonie usw. eingesetzt werden.
# [2] = tested on: Staphylococcus aureus 209P; experiment: as above; format: cell-based; conditions: 1 mg/ml solution in a 6 mm well in agar containing Staphylococcus aureus 209P; read-out: Hofdurchmesser
# Protocol: as §2
# [3] = tested on: Mäuse-L 1210-Leukämiezellen; experiment: Stem cell test (colony formation in soft agar, continuous incubation); format: cell-based; conditions: Mus musculus, L1210, 168 h, read-out: IC50 Stammzellentest 7 Tage Inkubation
# Description: as §1
# Diese Methode dient zum Nachweis der Wirkung der Prüfsubstanz auf das Wachstum von Leukämiezellen über mehrere Generationen (da die Dauer eines Zellzyklus 10 - 12 Stunden beträgt, werden innerhalb des Untersuchungszeitraumes von 7 Tagen rund 14 aufeinanderfolgende Generationen erfaßt).
# In diesem Test beruht die Wirkung von zytotoxischen Substanzen auf der Verminderung der Zahl beobachtbarer Kolonien im Vergleich zur unbehandelten Kontrolle. Es wird folgende Methodik verwendet: • Pro Platte werden 500 L 1210-Leukämiezellen verwendet. Die Experimente werden bei kontinuierlicher Inkubation mit verschiedenen Konzentrationen der Prüfsubstanz durchgeführt, wobei die Substanz vor dem Aufbringen der Zellen auf die Platte der oberen Agarschicht beigemischt wird. Die Platten werden 7 Tage lang in einem Brutschrank gelagert (37°C, 5 % C023 95 % relative Luftfeuchtigkeit). Anschließend wird die Anzahl der entstandenen Kolonien mit einem Durchmesser von mehr als 60 um mit einem umgekehrten Mikroskop gezählt. Die Resultate werden als Prozentsatz der auf den behandelten Platten gebildeten Kolonien im Vergleich zu denen der unbehandelten Kontrolle ausgedrückt. Mit den ermittelten Werten wird eine Dosiswirkungskurve gezeichnet, aus welcher der IC50-Wert graphisch ermittelt wird. Die IC50-Werte der Kesarirhodine werden in Tabelle III mit denen von Adriamycin verglichen.
# Candida albicans = experiment: Agar well diffusion (inhibition zone); format: cell-based; conditions: 1 mg/ml solution in a 6 mm well in agar containing Candida albicans; read-out: Hofdurchmesser
# Protocol: as §2
# [4] = Solubility in solvents (qualitative); format: physicochemical
# [5] = L1210, L 1210 cells, 72 h incubation, 14C-thymidine incorporation, read graphically from dose-response curve
# [6] = 500 L 1210 cells per plate, soft agar, continuous incubation 7 days, colonies > 60 µm
# [7] = in Hexan (n-Hexan) und Petroläther (Petroleumäther)
# [8] = in Methanol, Aceton, Äthylacetat, Chloroform und schwachen Säuren
"IC50 [3, 6]","Löslichkeit [4, 7]","Löslichkeit [4, 8]",Compound,"IC50 [1, 5]",zone of inhibition at 1000 µg/mL (Bacillus subtilis),zone of inhibition at 1000 µg/mL [2],zone of inhibition at 1000 µg/mL (Candida albicans),"IC50 ([1]; L1210, 72 h)",IC50 [3]
0.031 µg/mL,wenig löslich,löslich,CC[C@]1(O)Cc2c(O)c3c(c(O)c2[C@@H](O[C@H]2C[C@H](N(C)C)[C@H](O[C@H]4C[C@H](O)[C@H](O[C@H]5CC[C@H](O)[C@H](C)O5)[C@H](C)O4)[C@H](C)O2)C1)C(=O)c1c(O)cccc1C3=O [Kesarirhodin A],0.031 µg/mL,17 mm,15 mm,20 mm,–,–
–,–,–,"COc1cccc2c1C(=O)c1c(O)c3c(c(O)c1C2=O)C[C@@](O)(C(=O)CO)C[C@@H]3O[C@H]1C[C@H](N)[C@H](O)[C@H](C)O1 [Adriamycin, reference compound]",–,–,–,–,0.006 µg/mL,0.022 µg/mL
0.028 µg/mL,wenig löslich,löslich,CC[C@]1(O)Cc2c(O)c3c(c(O)c2[C@@H](O[C@H]2C[C@H](N(C)C)[C@H](O[C@H]4CC[C@H](O[C@H]5CC[C@H](O)[C@H](C)O5)[C@H](C)O4)[C@H](C)O2)C1)C(=O)c1c(O)cccc1C3=O [Kesarirhodin B],0.1 µg/mL,17 mm,17 mm,20 mm,–,–
